Test results: PubChem BioAssay (NCI)
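Where inhibition never reached the appropriate level, the endpoint shown equals the highest concentration tested. Otherwise, values were interpolated linearly from a five-concentration, 48-hour dose response in 96-well plates. Here, GI50 denotes the concentration required for 50% inhibition of growth. TGI denotes the concentration required for complete inhibition of growth.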

How the values were obtained:
Test in all cases: NCI-60 cell line screen, 48 h
[1] = test system: KM12 colon
[2] = test system: A549 NSCLC
[3] = test system: PC-3 prostate
[4] = test system: SF-268 CNS
[5] = test system: MDA-MB-435
[6] = test system: U251 CNS
[7] = test system: CAKI-1 renal
[8] = test system: MDA-MB-231 breast
[9] = test system: NCI-H522 lung
[10] = test system: MALME-3M melanoma
[11] = test system: IGROV1 ovarian
[12] = test system: 786-0 renal
[13] = test system: HCT-15 colon
[14] = test system: M14 melanoma
[15] = test system: OVCAR-3 ovarian
[16] = test system: SK-MEL-5 melanoma
[17] = test system: TK-10 renal
[18] = test system: HCT-116 colon
[19] = test system: SNB-75 CNS
[20] = test system: SN12C renal
[21] = test system: DU-145 prostate
[22] = test system: T-47D breast
[23] = test system: HCC-2998 colon
[24] = test system: HT29 colon
[25] = test system: A498 renal
[26] = test system: NCI/ADR-RES ovarian
[27] = test system: NCI-H460 lung
[28] = test system: BT-549 breast
[29] = test system: SF-295 CNS
[30] = test system: COLO 205 colon
[31] = test system: NCI-H226 lung
[32] = test system: UO-31 renal
[33] = test system: MOLT-4 leukemia
[34] = test system: HOP-92 NSCLC
[35] = test system: HOP-62 NSCLC
[36] = test system: RXF 393 renal
[37] = test system: OVCAR-4 ovarian
[38] = test system: HL-60(TB) leukemia
[39] = test system: CCRF-CEM leukemia
[40] = test system: NCI-H23 lung
[41] = test system: SW-620 colon
[42] = test system: SK-OV-3 ovarian
[43] = test system: SNB-19 CNS
[44] = test system: RPMI-8226 leukemia
[45] = test system: LOX IMVI melanoma
[46] = test system: UACC-62 melanoma
[47] = test system: K-562 leukemia
[48] = test system: UACC-257 melanoma
[49] = test system: HS 578T breast
[50] = test system: SR leukemia
[51] = test system: MCF7 breast

O=c1[nH]c2ccccc2cc1-c1nnc(Cc2ccccc2)o1
GI50 [1]: 10.4 µM
TGI [1]: 28.4 µM
GI50 [2]: 15.7 µM
TGI [2]: > 100 µM
GI50 [3]: 4.16 µM
TGI [3]: 70.6 µM
GI50 [4]: 10.7 µM
TGI [4]: 42 µM
GI50 [5]: 3.51 µM
TGI [5]: 17.5 µM
GI50 [6]: 4.12 µM
TGI [6]: 14.9 µM
GI50 [7]: 3.65 µM
TGI [7]: 14.4 µM
GI50 [8]: 3.29 µM
TGI [8]: 14.7 µM
GI50 [9]: 2.27 µM
TGI [9]: 5.9 µM
GI50 [10]: 3.94 µM
TGI [10]: 16.2 µM
GI50 [11]: 5.2 µM
TGI [11]: 27.1 µM
GI50 [12]: 4 µM
TGI [12]: 14.6 µM
GI50 [13]: 3.3 µM
TGI [13]: 13.5 µM
GI50 [14]: 3.16 µM
TGI [14]: 15.2 µM
GI50 [15]: 3.25 µM
TGI [15]: 11 µM
GI50 [16]: 3.43 µM
TGI [16]: 16.4 µM
GI50 [17]: 5.23 µM
TGI [17]: 16 µM
GI50 [18]: 1.41 µM
TGI [18]: 3.1 µM
GI50 [19]: 6.07 µM
TGI [19]: 21.4 µM
GI50 [20]: 3.46 µM
TGI [20]: 28.2 µM
GI50 [21]: 5.18 µM
TGI [21]: 18.5 µM
GI50 [22]: 3.04 µM
TGI [22]: 17.1 µM
GI50 [23]: 12.7 µM
TGI [23]: 27.5 µM
GI50 [24]: 3.78 µM
TGI [24]: 12.9 µM
GI50 [25]: 13.3 µM
TGI [25]: 27.1 µM
GI50 [26]: 14.4 µM
TGI [26]: 71.1 µM
GI50 [27]: 6.63 µM
TGI [27]: 28.3 µM
GI50 [28]: 2.56 µM
TGI [28]: 10.2 µM
GI50 [29]: 11.2 µM
TGI [29]: 32.2 µM
GI50 [30]: 3.55 µM
TGI [30]: 13.2 µM
GI50 [31]: 11.5 µM
TGI [31]: 94.4 µM
GI50 [32]: 1.72 µM
TGI [32]: 3.72 µM
GI50 [33]: 2.67 µM
TGI [33]: 9.22 µM
GI50 [34]: 3.34 µM
TGI [34]: 15.3 µM
GI50 [35]: 12.6 µM
TGI [35]: 34.3 µM
GI50 [36]: 2.93 µM
TGI [36]: 10.9 µM
GI50 [37]: 4.23 µM
TGI [37]: 18.3 µM
GI50 [38]: 3.43 µM
TGI [38]: 21.2 µM
GI50 [39]: 1.7 µM
TGI [39]: 7.79 µM
GI50 [40]: 11.3 µM
TGI [40]: 39.5 µM
GI50 [41]: 1.87 µM
TGI [41]: 4.16 µM
GI50 [42]: 18.3 µM
TGI [42]: 38.1 µM
GI50 [43]: 12.9 µM
TGI [43]: 38.1 µM
GI50 [44]: 1.94 µM
TGI [44]: 6.67 µM
GI50 [45]: 1.75 µM
TGI [45]: 4.3 µM
GI50 [46]: 3.43 µM
TGI [46]: 15.6 µM
GI50 [47]: 3.29 µM
TGI [47]: 14.4 µM
GI50 [48]: 4.79 µM
TGI [48]: 24.4 µM
GI50 [49]: 13.3 µM
TGI [49]: > 100 µM
GI50 [50]: 2.03 µM
TGI [50]: 10.9 µM
GI50 [51]: 2.41 µM
TGI [51]: 12.9 µM
